For one data set, the system named is Mus musculus. The data set is described as follows: Antiarrhythmic activity in ip dosed CF1 mouse by chloroform-fibrillation assay based ECG analysis. The class given is functional. Conditions: CF1, Heart.
Data set [1] can be described thus: Acute toxicity in ip dosed CF1 mouse. As to conditions: in vivo.
Data set [2] is described as follows: Therapeutic index, ratio of LD50 for CF1 mouse to ED50 for antiarrhythmic activity in CF1 mouse. As to conditions: in vivo.
Data set [3] can be described thus: Octanol-phosphate buffer apparent partition coefficient, log D of the compound at pH 7.4 by GLC analysis. The class given is physicochemical.
A short description of data set [4]: Binding affinity to calcium nitrate in anhydrous dimethyl-d6-sulfoxide solvent by proton magnetic resonance analysis.
The nature of data set [5]: Binding affinity to magnesium nitrate in anhydrous dimethyl-d6-sulfoxide solvent by proton magnetic resonance analysis.
Data set [6] can be described thus: Binding affinity to calcium salt in methanol-d4 solvent by proton magnetic resonance analysis.
The nature of data set [7]: Binding affinity to magnesium salt in methanol-d4 solvent by proton magnetic resonance analysis.

Here are results for nine compounds from ChEMBL document CHEMBL3272108, “Analogues of sparteine. 5. Antiarrhythmic activity of selected N,N'-disubstituted bispidines” (J Med Chem, 1977).

The ED50 is the midpoint of the dose-response relation. Lower therefore signals greater potency. The term LD50 denotes the dose expected to kill half of the subjects tested. Low values mean greater toxicity, high ones lower toxicity. The logD is lipophilicity at a set pH, counting ionised and neutral species.

Molecules are shown by their SMILES. Calls of active or inactive are those of the source. No cut-off for these calls is given here.

As to `CN1CC2CC(C1)CN(C(c1ccccc1)c1ccccc1)C2.Cl`, in the data set on Mus musculus, the ED50 amounted to 259 µmol/kg. Moreover, in data set [1], the LD50 was determined as 225 µmol/kg. The selectivity ratio in data set [2] was 0.87. In addition, the logD in data set [3] is -0.43.

`CCCCN1CC2CC(C1)CN(CCCC)C2.Cl` came in with an ED50 in the data set with Mus musculus of 170 µmol/kg. In data set [1], the LD50 is 196 µmol/kg. Moreover, the selectivity ratio in data set [2] is 1.23. For the same compound, the logD in data set [3] is -2.07.

With `CC(C)N(CCC(C(N)=O)(c1ccccc1)c1ccccn1)C(C)C` (stereo not given) [DISOPYRAMIDE], the 50% effect level in the data set on Mus musculus (ED50) was put at a dose of 60 µmol/kg. This compound displayed an LD50 in data set [1] of 504 µmol/kg. Further, the selectivity ratio in data set [2] is 8.4.

`C1CCN2C[C@@H]3C[C@@H](CN4CCCC[C@@H]34)[C@H]2C1.O.O.O.O.O.O=S(=O)(O)O` [SPARTEINE SULFATE] showed an ED50 with Mus musculus of 150 µmol/kg. In addition, the median lethal dose (LD50) in data set [1] stood at 134 µmol/kg. Further, the selectivity ratio in data set [2] turned out to be 0.89. In addition, in data set [3], the log distribution coefficient (logD) was -1.57. Also, the result in data set [4] and in data set [5] was inactive. Besides, the outcome in data set [6] and in data set [7] was Active.

Consider `CCCCN1CC2CC(C1)CN(Cc1ccccc1)C2.Cl`, for which the 50% effect level in the data set with Mus musculus (ED50) was put at a dose of 159 µmol/kg. In data set [1], this compound showed an LD50 of 198 µmol/kg. Also, the selectivity ratio in data set [2] came to 1.25. For the same compound, the pH-dependent lipophilicity (logD) in data set [3] was -1.22. In addition, the result in data set [4] and in data set [5] was inactive.

`CC(C)C1C2CC(CN(C)C2)CN1C.Cl` (stereo not given): in the data set with Mus musculus, the ED50 was found to be 191 µmol/kg. In data set [1], this compound showed an LD50 of 279 µmol/kg. Moreover, the selectivity ratio in data set [2] was 1.46. Besides, in data set [3], the logD is -3.4.

As for `CN1CC2CC(C1)CN(Cc1ccccc1)C2.CS(=O)(=O)O`, the ED50 in the data set with Mus musculus is 154 µmol/kg. This compound returned an LD50 in data set [1] of 189 µmol/kg. For the same compound, the selectivity ratio in data set [2] was 1.23. Also, in data set [3], the logD was -2.57. Moreover, the outcome in data set [6] and in data set [7] was Active.

Compound `Cl.c1ccc(CN2CC3CC(C2)CN(Cc2ccccc2)C3)cc1` gave an ED50 with Mus musculus of 160 µmol/kg. For the same compound, the LD50 in data set [1] amounted to 199 µmol/kg. Also, the selectivity ratio in data set [2] came out at 1.24. The logD in data set [3] is -0.43. Moreover, the outcome in data set [4] and in data set [5] was inactive.

Consider `Br.CCCCN1CC2CC(CN(C)C2)C1`, for which the ED50 with Mus musculus is 192 µmol/kg. In data set [1], this compound showed an LD50 of 207 µmol/kg. Moreover, the selectivity ratio in data set [2] stood at 1.08. Moreover, the logD in data set [3] was -3.39.
